Experiments:
[1] = target: Melanocortin receptor 4 (Homo sapiens, UniProt P32245); type: cell membranes, Membrane; conditions: hek293; further: in other assays of this panel Not Active means under 50% inhibition at 10 µM
[2] = DRUGMATRIX: Atrial Natriuretic Factor (ANF) radioligand binding (ligand: [125I] ANF (rat)); type: cell membranes, Cavia porcellus, Dunkin-Hartley, Adrenal gland, Membrane; conditions: Not Active = under 50% inhibition at 10 µM
[3] = DRUGMATRIX: Phosphodiesterase PDE3 enzyme inhibition (substrate: [3H]cAMP + cAMP); type: tissue-based, Homo sapiens; conditions: platelet; Not Active = under 50% inhibition at 10 µM
[4] = target: T1, 5-hydroxytryptamine receptor 1A (Rattus norvegicus, UniProt P19327); type: cell membranes, CHO-K1, Membrane; conditions: cho-k1; further: in other assays of this panel Not Active means under 50% inhibition at 10 µM
T1 sequence (P19327 whole entry): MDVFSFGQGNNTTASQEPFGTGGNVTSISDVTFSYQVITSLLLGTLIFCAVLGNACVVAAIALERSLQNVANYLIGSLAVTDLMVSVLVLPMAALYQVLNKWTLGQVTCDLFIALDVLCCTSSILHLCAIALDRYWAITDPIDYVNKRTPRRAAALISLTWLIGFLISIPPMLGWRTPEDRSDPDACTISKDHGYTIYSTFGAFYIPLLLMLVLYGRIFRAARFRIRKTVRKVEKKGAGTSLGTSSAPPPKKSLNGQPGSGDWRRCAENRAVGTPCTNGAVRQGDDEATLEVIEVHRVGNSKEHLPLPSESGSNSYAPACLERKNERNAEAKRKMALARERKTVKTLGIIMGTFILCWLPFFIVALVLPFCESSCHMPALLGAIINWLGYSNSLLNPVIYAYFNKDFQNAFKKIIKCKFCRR

[5] = target: Substance-P receptor (Homo sapiens, UniProt P25103); type: cell membranes, Membrane; conditions: cho; further: in other assays of this panel Not Active means under 50% inhibition at 10 µM
Substance-P receptor, sequence (P25103 whole entry): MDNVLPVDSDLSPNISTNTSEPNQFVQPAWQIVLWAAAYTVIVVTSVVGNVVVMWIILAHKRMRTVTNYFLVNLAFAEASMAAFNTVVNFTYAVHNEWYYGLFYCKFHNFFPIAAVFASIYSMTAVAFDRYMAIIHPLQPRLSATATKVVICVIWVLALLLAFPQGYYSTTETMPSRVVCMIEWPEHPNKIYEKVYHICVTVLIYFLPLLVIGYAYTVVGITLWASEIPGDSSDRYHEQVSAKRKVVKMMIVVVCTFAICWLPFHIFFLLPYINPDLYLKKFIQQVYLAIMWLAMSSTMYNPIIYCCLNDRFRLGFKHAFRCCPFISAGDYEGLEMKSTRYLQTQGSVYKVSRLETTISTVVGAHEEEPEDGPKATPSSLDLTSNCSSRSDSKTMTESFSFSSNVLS

[6] = target: T2, C-X-C chemokine receptor type 1 (Homo sapiens, UniProt P25024); further: in other assays of this panel Not Active means under 50% inhibition at 10 µM
T2 sequence (P25024 whole entry): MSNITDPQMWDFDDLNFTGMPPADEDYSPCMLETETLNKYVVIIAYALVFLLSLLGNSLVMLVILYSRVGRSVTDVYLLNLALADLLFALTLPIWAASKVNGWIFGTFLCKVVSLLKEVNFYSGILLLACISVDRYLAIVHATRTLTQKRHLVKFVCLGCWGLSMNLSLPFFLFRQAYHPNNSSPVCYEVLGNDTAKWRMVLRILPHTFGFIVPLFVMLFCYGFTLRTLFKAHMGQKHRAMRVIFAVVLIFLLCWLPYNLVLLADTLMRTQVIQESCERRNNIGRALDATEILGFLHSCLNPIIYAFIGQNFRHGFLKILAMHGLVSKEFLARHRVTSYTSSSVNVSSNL

[7] = DRUGMATRIX: Calcium Channel Type L, Benzothiazepine radioligand binding (ligand: [3H] Diltiazem); type: cell membranes, Rattus norvegicus, Wistar, Brain, Membrane; conditions: Not Active = under 50% inhibition at 10 µM

Melanocortin receptor 4, sequence (P32245 whole entry): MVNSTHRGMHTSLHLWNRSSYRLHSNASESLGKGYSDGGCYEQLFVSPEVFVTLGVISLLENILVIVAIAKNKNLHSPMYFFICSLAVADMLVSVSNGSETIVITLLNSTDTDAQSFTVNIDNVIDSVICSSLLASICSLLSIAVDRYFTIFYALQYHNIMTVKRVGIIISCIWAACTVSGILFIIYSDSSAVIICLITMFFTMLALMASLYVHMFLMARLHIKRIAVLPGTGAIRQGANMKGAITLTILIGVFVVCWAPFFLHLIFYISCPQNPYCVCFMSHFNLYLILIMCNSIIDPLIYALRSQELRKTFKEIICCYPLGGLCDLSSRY

C[C@H]1C[C@H]2[C@@H]3CCC4=CC(=O)C=C[C@]4(C)[C@@]3(F)[C@@H](O)C[C@]2(C)[C@@]1(O)C(=O)CO [BETAMETHASONE]
Not Active: IC50 [1] | IC50 [2] | Ki [2] | IC50 [3] | Ki [3] | IC50 [4] | IC50 [5] | IC50 [6] | IC50 [7] | Ki [7]

CC(C)NCC(O)COc1ccc(CC(N)=O)cc1 (stereo not given) [ATENOLOL]
Not Active: IC50 [1] | IC50 [2] | Ki [2] | IC50 [3] | Ki [3] | IC50 [4] | IC50 [5] | IC50 [6] | IC50 [7] | Ki [7]

O=C1c2ccccc2C(=O)C1c1ccccc1 [PHENINDIONE]
Not Active: IC50 [1] | IC50 [2] | Ki [2] | IC50 [3] | Ki [3] | IC50 [4] | IC50 [5] | IC50 [6] | IC50 [7] | Ki [7]

CCCCCCNC(=O)n1cc(F)c(=O)[nH]c1=O [CARMOFUR]
Not Active: IC50 [1] | IC50 [2] | Ki [2] | IC50 [3] | Ki [3] | IC50 [4] | IC50 [5] | IC50 [6] | IC50 [7] | Ki [7]

O=c1[nH]cnc2c1ncn2[C@H]1CC[C@@H](CO)O1 [DIDANOSINE]
Not Active: IC50 [1] | IC50 [2] | Ki [2] | IC50 [3] | Ki [3] | IC50 [4] | IC50 [5] | IC50 [6] | IC50 [7] | Ki [7]

CC(=O)Nc1ccc2c(c1)Cc1ccccc1-2 [2-ACETYLAMINOFLUORENE]
Not Active: IC50 [1] | IC50 [2] | Ki [2] | IC50 [3] | Ki [3] | IC50 [4] | IC50 [5] | IC50 [6] | IC50 [7] | Ki [7]

CC(C)(c1ccc(O)cc1)c1ccc(O)cc1 [BISPHENOL A]
Not Active: IC50 [1] | IC50 [2] | Ki [2] | IC50 [3] | Ki [3] | IC50 [4] | IC50 [5] | IC50 [6] | IC50 [7] | Ki [7]

CO[C@H]1O[C@@H]2O[C@@]3(C)CC[C@H]4[C@H](C)CC[C@@H]([C@H]1C)[C@@]24OO3
Not Active: IC50 [1] | IC50 [2] | Ki [2] | IC50 [3] | Ki [3] | IC50 [4] | IC50 [5] | IC50 [6] | IC50 [7] | Ki [7]

C#C[C@]1(O)CC[C@H]2[C@@H]3CCC4=CC(=O)CC[C@@H]4[C@H]3CC[C@@]21C [NORETHINDRONE]
Not Active: IC50 [1] | IC50 [2] | Ki [2] | IC50 [3] | Ki [3] | IC50 [4] | IC50 [5] | IC50 [6] | IC50 [7] | Ki [7]

CN(Cc1cc(Br)cc(Br)c1N)C1CCCCC1 [BROMHEXINE]
Not Active: IC50 [1] | IC50 [2] | Ki [2] | IC50 [3] | Ki [3] | IC50 [4] | IC50 [5] | IC50 [6] | IC50 [7] | Ki [7]

CC12CCC(CC1=O)C2(C)C (stereo not given) [CAMPHOR]
Not Active: IC50 [1] | IC50 [2] | Ki [2] | IC50 [3] | Ki [3] | IC50 [4] | IC50 [5] | IC50 [6] | IC50 [7] | Ki [7]

C[C@@H]1[C@H](O)[C@@H](C)/C=C/C=C/C=C/C=C/C=C/C=C/C=C/[C@H](O[C@@H]2O[C@H](C)[C@@H](O)[C@H](N)[C@@H]2O)C[C@@H]2O[C@](O)(C[C@@H](O)C[C@@H](O)[C@H](O)CC[C@@H](O)C[C@@H](O)CC(=O)O[C@H]1C)C[C@H](O)[C@H]2C(=O)O [AMPHOTERICIN B]
Not Active: IC50 [1] | IC50 [2] | Ki [2] | IC50 [3] | Ki [3] | IC50 [4] | IC50 [5] | IC50 [6] | IC50 [7] | Ki [7]

Nc1ccc(Cc2ccc(N)cc2)cc1
Not Active: IC50 [1] | IC50 [2] | Ki [2] | IC50 [3] | Ki [3] | IC50 [4] | IC50 [5] | IC50 [6] | IC50 [7] | Ki [7]

CCN(CCO)CCCC(C)Nc1ccnc2cc(Cl)ccc12 (stereo not given) [HYDROXYCHLOROQUINE]
Not Active: IC50 [1] | IC50 [2] | Ki [2] | IC50 [3] | Ki [3] | IC50 [4] | IC50 [5] | IC50 [6] | IC50 [7] | Ki [7]

O=C(O)COC(=O)Cc1ccccc1Nc1c(Cl)cccc1Cl [ACECLOFENAC]
Not Active: IC50 [1] | IC50 [2] | Ki [2] | IC50 [3] | Ki [3] | IC50 [4] | IC50 [5] | IC50 [6] | IC50 [7] | Ki [7]

O=C(O)CCc1nc(-c2ccccc2)c(-c2ccccc2)o1 [OXAPROZIN]
Not Active: IC50 [1] | IC50 [2] | Ki [2] | IC50 [3] | Ki [3] | IC50 [4] | IC50 [5] | IC50 [6] | IC50 [7] | Ki [7]

C=CCN1CC[C@]23c4c5ccc(O)c4O[C@H]2/C(=N/N=C2\CC[C@@]4(O)[C@H]6Cc7ccc(O)c8c7[C@@]4(CCN6CC=C)[C@H]2O8)CC[C@@]3(O)[C@H]1C5 [NALOXONAZINE]
Not Active: IC50 [1] | IC50 [2] | Ki [2] | IC50 [3] | Ki [3] | IC50 [4] | IC50 [5] | IC50 [6] | IC50 [7] | Ki [7]

O=C(O)CO [GLYCOLIC ACID]
Not Active: IC50 [1] | IC50 [2] | Ki [2] | IC50 [3] | Ki [3] | IC50 [4] | IC50 [5] | IC50 [6] | IC50 [7] | Ki [7]

COC(=O)Nc1nc2ccc(Sc3ccccc3)cc2[nH]1 [FENBENDAZOLE]
Not Active: IC50 [1] | IC50 [2] | Ki [2] | IC50 [3] | Ki [3] | IC50 [4] | IC50 [5] | IC50 [6] | IC50 [7] | Ki [7]

CC12CCC(CC1)C(C)(C)O2 [EUCALYPTOL]
Not Active: IC50 [1] | IC50 [2] | Ki [2] | IC50 [3] | Ki [3] | IC50 [4] | IC50 [5] | IC50 [6] | IC50 [7] | Ki [7]

O=C(Nc1ccc(Cl)c(Cl)c1)c1cc(Cl)cc(Cl)c1O [3,3',4',5-TETRACHLOROSALICYLANILIDE]
Not Active: IC50 [1] | IC50 [2] | Ki [2] | IC50 [3] | Ki [3] | IC50 [4] | IC50 [5] | IC50 [6] | IC50 [7] | Ki [7]

Cc1ccnc2c1NC(=O)c1cccnc1N2C1CC1 [NEVIRAPINE]
Not Active: IC50 [1] | IC50 [2] | Ki [2] | IC50 [3] | Ki [3] | IC50 [4] | IC50 [5] | IC50 [6] | IC50 [7] | Ki [7]

O=C1CN(/N=C/c2ccc([N+](=O)[O-])o2)C(=O)N1 [NITROFURANTOIN]
Not Active: IC50 [1] | IC50 [2] | Ki [2] | IC50 [3] | Ki [3] | IC50 [4] | IC50 [5] | IC50 [6] | IC50 [7] | Ki [7]

O=c1[nH]c2ccccc2c2ccccc12
Not Active: IC50 [1] | IC50 [2] | Ki [2] | IC50 [3] | Ki [3] | IC50 [4] | IC50 [5] | IC50 [6] | IC50 [7] | Ki [7]

COC(=O)C[C@](O)(CCC(C)(C)O)C(=O)O[C@@H]1C(OC)=C[C@]23CCCN2CCc2cc4c(cc2[C@H]13)OCO4 [HARRINGTONINE]
Not Active: IC50 [1] | IC50 [2] | Ki [2] | IC50 [3] | Ki [3] | IC50 [4] | IC50 [5] | IC50 [6] | IC50 [7] | Ki [7]

— ChEMBL document CHEMBL1909046, “DrugMatrix in vitro pharmacology data”
